In test [1] the test system is Norepinephrine Transporter. The experiment in a line: CNS side effect panel, [^3H]Nisoxetine. Format: binding. The note with it: pentamidine 1.0E^-5 M.
Another test addresses Histamine, H2 (Cavia porcellus, UniProt P47747). The experiment in a line: CNS side effect panel, [^125I]-Aminopotentidine. Format: binding.
In test [2] the test system is Trypanosoma brucei blood stream form trypomastigotes (T. b. brucei strain S427). The experiment in a line: Trypanocidal activity in vitro (Alamar Blue). Format: cell-based. (Resazurin is reduced to fluorescent resorufin, in cell work by metabolically active cells.)
In another test the test system is Sigma, Non-selective. The experiment in a line: CNS side effect panel, [^3H]DTG. Format: binding. The note with it: pentamidine 1.0E^-5 M.
Test [3] deals with NMDA (Ionotropic) glutamate receptor. The note with it: Voltage dependent; cited from earlier work.
Where [4] appears, read: read-out: % of bsf trypomastigotes inhibited.

For orientation: Ki means the dissociation constant of the complex between target and ligand, obtained from inhibition or displacement. High values mean lower affinity, low ones higher affinity. By IC50 is commonly meant the concentration that gives 50% inhibition.

Chain of Histamine, H2 (P47747 whole entry): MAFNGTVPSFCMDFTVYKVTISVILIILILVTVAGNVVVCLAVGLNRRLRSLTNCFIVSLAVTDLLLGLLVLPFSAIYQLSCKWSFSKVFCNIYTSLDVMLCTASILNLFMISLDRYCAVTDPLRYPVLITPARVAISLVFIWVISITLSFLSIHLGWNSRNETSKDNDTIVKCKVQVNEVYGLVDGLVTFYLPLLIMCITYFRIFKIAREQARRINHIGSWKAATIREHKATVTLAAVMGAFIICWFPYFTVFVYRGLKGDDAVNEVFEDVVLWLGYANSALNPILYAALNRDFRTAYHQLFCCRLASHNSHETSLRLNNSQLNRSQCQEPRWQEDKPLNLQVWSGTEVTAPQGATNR

As for `N=C(N)c1ccc(OCCCCCOc2ccc(C(=N)N)cc2)cc1` [Pentamidine, 1,5-bis-4ρ-amidinophenoxypentane], the “Percent Inhibition” value in test [1] turned out to be 21.39%. The compound also gave a Ki on Histamine, H2 of 7.21 µM. In addition, the “Percent Inhibition” value at Histamine, H2 (pentamidine 1.0E^-5 M) is recorded as 71.07%. In test [2] (setting [4]), the inhibition at 5.7 pM is 4.1%, the inhibition at 17 pM came out at 35%, the inhibition at 51 pM worked out at 65.3% and the inhibition at 0.3 µM was determined as 97.4%. The inhibition at 1 µM in test [2] (setting [4]) came to 98.3%. In addition, the IC50 in test [2] (read-out: IC50 (± 95% CI) of pentamidine) amounted to 0.0211 nM. For the same compound, in the test with Sigma, Non-selective, the “Percent Inhibition” value amounted to 6.50%. Also, the Affinity in test [3] is 0.2 µM.

The record behind these values is paper PMC8078842 (PLoS Neglected Tropical Diseases, 2021).
